{"source": "the NIST ThermoML archive (doi:10.1016/j.jct.2016.07.037)", "key": {"[1]": {"conditions": "Crystal; for vapor or sublimation pressure: Calculated from knudsen effusion weight loss; for Normal melting temperature: DTA"}, "[2]": {"assay": "Molar enthalpy of transition or fusion", "conditions": "Crystal; DSC"}, "[3]": {"assay": "molar heat capacity at constant pressure", "conditions": "298.15 K; 101.33 kPa; Crystal; Drop calorimetry"}, "[4]": {"assay": "molar enthalpy of vaporization or sublimation", "conditions": "298.15 K; Crystal; Static calorimetry"}}, "note": "Numbers after ± are expanded uncertainties.", "data": [{"smiles": "OCC(F)(F)C(F)(F)C(F)(F)C(F)(F)C(F)(F)C(F)(F)C(F)(F)C(F)(F)C(F)(F)C(F)(F)C(F)(F)C(F)(F)C(F)(F)F", "values": [{"measurement": "vapor or sublimation pressure", "setting": "[1]; 328.6 K", "value": "0.00014 ± 2.1e-05", "unit": "kPa"}, {"measurement": "vapor or sublimation pressure", "setting": "[1]; 330.6 K", "value": "0.000172 ± 2.1e-05", "unit": "kPa"}, {"measurement": "vapor or sublimation pressure", "setting": "[1]; 332.5 K", "value": "0.000231 ± 2.2e-05", "unit": "kPa"}, {"measurement": "vapor or sublimation pressure", "setting": "[1]; 334.5 K", "value": "0.000302 ± 2.3e-05", "unit": "kPa"}, {"measurement": "vapor or sublimation pressure", "setting": "[1]; 336.5 K", "value": "0.000391 ± 2.4e-05", "unit": "kPa"}, {"measurement": "vapor or sublimation pressure", "setting": "[1]; 338.4 K", "value": "0.000502 ± 2.7e-05", "unit": "kPa"}, {"measurement": "vapor or sublimation pressure", "setting": "[1]; 340.4 K", "value": "0.000642 ± 3e-05", "unit": "kPa"}, {"measurement": "Normal melting temperature", "setting": "[1]", "value": "139.2 ± 0.5", "unit": "°C"}, {"measurement": "Molar enthalpy of transition or fusion", "setting": "[2]", "value": "9.08 ± 0.454", "unit": "kcal/mol"}, {"measurement": "molar heat capacity at constant pressure", "setting": "[3]", "value": "725.3 ± 17", "unit": "J/K/mol"}, {"measurement": "molar enthalpy", "setting": "[4]", "value": "30.2 ± 0.932", "unit": "kcal/mol"}]}, {"smiles": "OCC(F)(F)C(F)(F)C(F)(F)C(F)(F)C(F)(F)C(F)(F)C(F)(F)C(F)(F)C(F)(F)C(F)(F)F", "note": "[1H,1H-perfluoroundecan-1-ol]", "values": [{"measurement": "molar heat capacity at constant pressure", "setting": "[3]", "value": "602.4 ± 14", "unit": "J/K/mol"}]}, {"smiles": "OCC(F)(F)C(F)(F)C(F)(F)C(F)(F)C(F)(F)C(F)(F)C(F)(F)C(F)(F)C(F)(F)F", "note": "[1H,1H-perfluoro-1-decanol]", "values": [{"measurement": "molar heat capacity at constant pressure", "setting": "[3]", "value": "563.9 ± 13", "unit": "J/K/mol"}]}, {"smiles": "OCC(F)(F)C(F)(F)C(F)(F)C(F)(F)C(F)(F)C(F)(F)C(F)(F)C(F)(F)C(F)(F)C(F)(F)C(F)(F)F", "note": "[1H,1H-perfluoro-1-dodecanol]", "values": [{"measurement": "vapor or sublimation pressure", "setting": "[1]; 303.6 K", "value": "6.95e-05 ± 2e-05", "unit": "kPa"}, {"measurement": "vapor or sublimation pressure", "setting": "[1]; 306.1 K", "value": "0.0001 ± 2e-05", "unit": "kPa"}, {"measurement": "vapor or sublimation pressure", "setting": "[1]; 308.6 K", "value": "0.000143 ± 2.1e-05", "unit": "kPa"}, {"measurement": "vapor or sublimation pressure", "setting": "[1]; 311 K", "value": "0.000196 ± 2.1e-05", "unit": "kPa"}, {"measurement": "vapor or sublimation pressure", "setting": "[1]; 313.5 K", "value": "0.000273 ± 2.2e-05", "unit": "kPa"}, {"measurement": "vapor or sublimation pressure", "setting": "[1]; 316 K", "value": "0.000376 ± 2.4e-05", "unit": "kPa"}, {"measurement": "vapor or sublimation pressure", "setting": "[1]; 318.5 K", "value": "0.000517 ± 2.7e-05", "unit": "kPa"}, {"measurement": "vapor or sublimation pressure", "setting": "[1]; 321 K", "value": "0.000727 ± 3.3e-05", "unit": "kPa"}, {"measurement": "vapor or sublimation pressure", "setting": "[1]; 323.5 K", "value": "0.001007 ± 7.8e-05", "unit": "kPa"}, {"measurement": "Normal melting temperature", "setting": "[1]", "value": "114.2 ± 1.3", "unit": "°C"}, {"measurement": "Molar enthalpy of transition or fusion", "setting": "[2]", "value": "5.88 ± 0.311", "unit": "kcal/mol"}, {"measurement": "molar heat capacity at constant pressure", "setting": "[3]", "value": "645.2 ± 15", "unit": "J/K/mol"}, {"measurement": "molar enthalpy", "setting": "[4]", "value": "26.4 ± 0.86", "unit": "kcal/mol"}]}, {"smiles": "OCC(F)(F)C(F)(F)C(F)(F)C(F)(F)C(F)(F)C(F)(F)C(F)(F)C(F)(F)F", "note": "[2,2,3,3,4,4,5,5,6,6,7,7,8,8,9,9,9-heptadecafluoro-1-nonanol]", "values": [{"measurement": "molar heat capacity at constant pressure", "setting": "[3]", "value": "515.9 ± 12", "unit": "J/K/mol"}]}]}
